Values quoted from earlier work as cited in US20240309009A1, “Anxiolytic Compounds, Pharmaceutical Compositions, and Methods of Treating Anxiety and Other Disorders” (Miralogx LLC, priority 2022, published 2024).
Read-outs that look alike come from different tables or passages of the source.

Tests used:
[1] = unlike ibogaine

SMILES: CN(C)CCc1c[nH]c2ccccc12 [DMT, N,N-Dimethyltryptamine]
- duration of effects (inhaled or injected): 5 to 15 min
- duration of effects (orally ingested along with a monoamine oxidase inhibitor (MAOI)): three

SMILES: COc1ccc2c3c([nH]c2c1)CCN(C)CC3 [TBG, Tabernanthalog]
- water solubility [1]: water-soluble
- toxicity compared with ibogaine (zebrafish): less toxic than ibogaine
- toxicity compared with ibogaine (cell cultures): less toxic than ibogaine
- formation of new dendrites (branches) (rat nerve cells): increased formation of new dendrites
- formation of new spines on dendrites (rat nerve cells): new spines on those dendrites
